# Assays:
# Format in all cases: in vivo
# Conditions in all cases: 50 ppm, 100 = 100% disease control, 0 = no control
# [1] = tested on: Puccinia recondita f. sp. tritici; test: Test B: wheat leaf rust, preventive spray on wheat seedlings
# Procedure, shortened: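 Preventive test: compound in acetone/water 50/50 with 250 ppm PEG400 was sprayed onto wheat seedlings one day before inoculation with leaf rust spores. After 24 h in saturated air and 7 days in a growth chamber, both at 20 °C, disease control was scored from 0 to 100 against controls.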
# Alternaria solani = test: Test F: tomato early blight, preventive spray on tomato seedlings
# Procedure, shortened: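 Preventive test: one day after the compound spray, seedlings were inoculated with A. solani, incubated saturated at 27 °C for 48 h, then kept at 20 °C for 3 days. Test suspensions contained acetone/water 50/50 with 250 ppm PEG400 surfactant. Visual ratings run from 0 (no control) to 100 (full control).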
# Phakopsora pachyrhizi = test: Test D: Asian soybean rust, preventive spray on soybean seedlings
# Procedure, shortened: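 Compounds in acetone/water (50/50) with 250 ppm PEG400, dosed in ppm, sprayed to run-off on soybean seedlings; inoculated with P. pachyrhizi spores next day. Held 24 h at 22 °C in saturated air, then 8 days at 22 °C; visual rating of disease control, 0–100, relative to untreated controls.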
# Septoria tritici = test: Test A: wheat leaf blotch, preventive spray on wheat seedlings
# Procedure, shortened: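 Preventive test: one day after spraying seedlings to run-off (concentrations in ppm; acetone/water, 250 ppm PEG400), Septoria tritici spores applied. Scored after 48 h humid incubation at 24 °C plus 17 days at 20 °C, as percent disease control versus untreated controls (100 = full control).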
# [2] = tested on: Blumeria graminis f. sp. tritici; test: Test C: wheat powdery mildew, preventive spray on wheat seedlings
# Source text: General protocol for preparing test suspensions for Tests A-F: the test compounds were first dissolved in acetone in an amount equal to 3% of the final volume and then suspended at the desired concentration (in ppm) in acetone and purified water (50/50 mix by volume) containing 250 ppm of the surfactant PEG400 (polyhydric alcohol esters). The resulting test suspensions were then used in Tests A-F.
# The test suspension was sprayed to the point of run-off on wheat seedlings. The following day the seedlings were inoculated with a spore dust of Blumeria graminis f. sp. tritici, (also known as Erysiphe graminis f. sp. tritici, the causal agent of wheat powdery mildew) and incubated in a growth chamber at 20° C. for 8 days, after which time visual disease ratings were made.
# A rating of 100 indicates 100% disease control and a rating of 0 indicates no disease control (relative to the controls). A dash (−) indicates the compound was not tested.
# Botrytis cinerea = test: Test E: tomato Botrytis, preventive spray on tomato seedlings
# Procedure, shortened: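 Preventive test: seedlings sprayed to run-off with compound in acetone/water (50/50) plus 250 ppm PEG400, inoculated one day later with B. cinerea spores. Held 48 h saturated at 20° C, then 3 days at 24° C; disease control scored visually from 0 to 100 versus controls.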
SMILES,Test B disease control rating [1],Test F disease control rating (Alternaria solani),Test D disease control rating (Phakopsora pachyrhizi),Test A disease control rating (Septoria tritici),Test C disease control rating [2],Test E disease control rating (Botrytis cinerea)
Cc1nn(C)c(Nc2c(F)cccc2[N+](=O)[O-])c1-c1c(F)cc(Cl)cc1F [compound 151],100%,99%,0%,100%,99%,99%
CCc1nn(C)c(Nc2c(F)cc(Br)cc2[N+](=O)[O-])c1-c1ccc(F)cc1F [compound 171],91%,88%,0%,100%,99%,97%
Cc1nn(C)c(Nc2c(Cl)cccc2[N+](=O)[O-])c1-c1c(F)cc(F)cc1F [compound 158],100%,83%,87%,99%,99%,99%
COc1cc(F)c(Nc2c(-c3c(F)cccc3F)c(C)nn2C)c([N+](=O)[O-])c1 [compound 97],100%,99%,96%,100%,100%,100%
Cc1nn(C)c(Nc2c(Cl)cc(F)cc2[N+](=O)[O-])c1-c1c(F)cccc1Cl [compound 49],100%,26%,25%,100%,95%,94%
Cc1cc(Cl)c(Nc2c(-c3ccc(F)cc3F)c(C)nn2C)c([N+](=O)[O-])c1 [compound 15],100%,53%,61%,100%,98%,99%
Cc1nn(C)c(Nc2c(F)cc(I)cc2[N+](=O)[O-])c1-c1ccc(F)cc1Cl [compound 47],97%,96%,92%,100%,89%,95%
Cc1nn(C)c(Nc2c(Cl)cc(F)cc2[N+](=O)[O-])c1-c1ccc(Cl)cc1F [compound 176],97%,0%,0%,100%,0%,9%
COc1ccc(Nc2c(-c3ccc(C#N)cc3Br)c(C)nn2C)c([N+](=O)[O-])c1 [compound 180],98%,98%,0%,100%,79%,99%
CCc1nn(C)c(Nc2c(F)cc(C)cc2[N+](=O)[O-])c1-c1ccc(F)cc1F [compound 185],100%,99%,0%,100%,99%,96%
Cc1nn(C)c(Nc2c(Cl)cccc2[N+](=O)[O-])c1-c1ccc(F)cc1Br [compound 41],100%,0%,77%,100%,94%,77%
Cc1nn(C)c(Nc2c(F)cc(Br)cc2[N+](=O)[O-])c1-c1ccc(F)cc1Br [compound 191],100%,100%,13%,100%,99%,100%
CCc1nn(C)c(Nc2c(F)cc(F)cc2[N+](=O)[O-])c1-c1ccc(F)cc1F [compound 50],98%,98%,0%,100%,100%,92%
COc1cc(F)c(-c2c(C)nn(C)c2Nc2c(C)cccc2[N+](=O)[O-])c(F)c1 [compound 162],100%,98%,77%,100%,99%,97%
Cc1nn(C)c(Nc2ccc(OC(F)F)cc2[N+](=O)[O-])c1-c1ccc(F)cc1Cl [compound 28],68%,0%,0%,91%,69%,99%
COc1cc(F)c(Nc2c(-c3ccc(C#N)cc3Cl)c(C)nn2C)c([N+](=O)[O-])c1 [compound 166],100%,100%,98%,99%,98%,99%
Cc1nn(C)c(Nc2c(F)cc(F)cc2[N+](=O)[O-])c1-c1ccc(F)cc1F [compound 58],100%,99%,36%,100%,99%,99%
COc1ccc(-c2c(C)nn(C)c2Nc2c(F)cccc2[N+](=O)[O-])c(Cl)c1 [compound 27],100%,99%,87%,100%,91%,100%
CCc1nn(C)c(Nc2c(F)cc(C)cc2[N+](=O)[O-])c1-c1ccc(F)cc1Cl [compound 137],100%,99%,91%,100%,100%,99%
COc1ccc(-c2c(C)nn(C)c2Nc2c(F)cc(Cl)cc2[N+](=O)[O-])c(Cl)c1 [compound 81],99%,99%,0%,100%,89%,95%
Cc1nn(C)c(Nc2ccccc2[N+](=O)[O-])c1-c1c(F)cccc1Cl [compound 136],80%,0%,0%,100%,88%,99%
COc1ccc(-c2c(C)nn(C)c2Nc2c(F)cc(C)cc2[N+](=O)[O-])c(Cl)c1 [compound 188],100%,100%,84%,100%,94%,100%

# From patent publication US20230148599A1, “FUNGICIDAL MIXTURES CONTAINING PYRAZOLE DERIVATIVES” (FMC Corporation, priority 2020, published 2023)
